Reference: the NIST ThermoML archive (doi:10.1016/j.jct.2011.07.021)
Numbers after ± are expanded uncertainties.

Columns and labels:
[1] = 101.33 kPa, Liquid, Vibrating tube method
[2] = refractive index (Na D-line) (dimensionless); conditions: 101.33 kPa, Liquid, Standard Abbe refractometry
[3] = relative permittivity at zero frequency (dimensionless); conditions: 101.33 kPa, Liquid, Parallel plate capacitor
[4] = refractive index (Na D-line) (dimensionless); xn = mol fraction of the nth substance listed; conditions: 101 kPa, Liquid, Standard Abbe refractometry
[5] = relative permittivity at zero frequency (dimensionless); xn = mol fraction of the nth substance listed; conditions: 101 kPa, Liquid, Parallel plate capacitor

| Structure (SMILES) | mass density ([1]; 298.2 K) [kg/m3] | mass density ([1]; 308.2 K) [kg/m3] | mass density ([1]; 318.2 K) [kg/m3] | refractive index ([2]; 298.2 K) | refractive index ([2]; 308.2 K) | refractive index ([2]; 318.2 K) | relative permittivity at zero frequency ([3]; 298.2 K) | relative permittivity at zero frequency ([3]; 308.2 K) | relative permittivity at zero frequency ([3]; 318.2 K) | further results |
| --- | --- | --- | --- | --- | --- | --- | --- | --- | --- | --- |
| CCC(O)CO (centres undefined) [1,2-butanediol] | 998.67 ± 0.85 | 991.15 ± 0.84 | 983.55 ± 0.83 | 1.4372 ± 0.0005 | 1.433 ± 0.0005 | 1.4288 ± 0.0005 | 22.143 ± 0.037 | 20.365 ± 0.036 | 18.661 ± 0.036 |  |
| CCC(O)CO (centres undefined) [1,2-butanediol] + CCCCC(CC)CO |  |  |  |  |  |  |  |  |  | refractive index ([4]; 298.2 K, x1 = 1): 1.4372 ± 0.0005; refractive index ([4]; 308.2 K, x1 = 1): 1.4312 ± 0.0005; refractive index ([4]; 318.2 K, x1 = 1): 1.4281 ± 0.0005; relative permittivity at zero frequency ([5]; 298.2 K, x1 = 1): 22.143 ± 0.037; relative permittivity at zero frequency ([5]; 308.2 K, x1 = 1): 20.365 ± 0.036; relative permittivity at zero frequency ([5]; 318.2 K, x1 = 1): 18.661 ± 0.036 |
| C1COCCO1 [1,4-dioxane] | 1027.9 ± 0.27 | 1016.11 ± 0.26 | 1005 ± 0.3 | 1.4201 ± 0.0004 | 1.4142 ± 0.0004 | 1.4084 ± 0.0004 | 2.228 ± 0.01 | 2.21 ± 0.01 | 2.187 ± 0.01 |  |
| C1COCCO1 [1,4-dioxane] + CCC(O)CO |  |  |  |  |  |  |  |  |  | refractive index ([4]; 298.2 K, x2 = 0): 1.4201 ± 0.0004; refractive index ([4]; 308.2 K, x2 = 0): 1.4142 ± 0.0004; refractive index ([4]; 318.2 K, x2 = 0): 1.4084 ± 0.0004; relative permittivity at zero frequency ([5]; 298.2 K, x2 = 0): 2.228 ± 0.01; relative permittivity at zero frequency ([5]; 308.2 K, x2 = 0): 2.209 ± 0.01; relative permittivity at zero frequency ([5]; 318.2 K, x2 = 0): 2.187 ± 0.01 |
| CCCCC(CC)CO (centres undefined) [2-ethyl-1-hexanol] | 830.62 ± 0.22 | 823.1 ± 0.22 | 814.91 ± 0.23 | 1.4293 ± 0.0004 | 1.4252 ± 0.0004 | 1.4213 ± 0.0004 | 7.353 ± 0.022 | 6.361 ± 0.021 | 5.522 ± 0.02 |  |
